Experimental data reported in US20220184003A1, “Formulations of Cannabidiol Derivatives and Their Use as Modulators of Cannabinoid Receptor Type 2 (CB2)” (EMERALD HEALTH PHARMACEUTICALS INC, priority 2019, published 2022).
Values after ≈ are worked out from the molar mass of the structure shown. Where two headings read alike, the source gives them in different places.

Tests used:
[1] = Stability of VCE-004.8 during phytosomization (reflux in ethyl acetate); assay type: physicochemical; settings: area %
Experimental: FIG. 8 depicts a stability of VCE-004.8 during phytosomization, at reflux in ethyl acetate at different times (45 min, 6 hr and 24 hr).
A preliminary investigation of the compound stability gave indication that the active principle is stable in the process conditions, although an impurity peak not detected in the starting material and almost neglectable at […], increased after 6 hr (1.7% in area %) and grew after 24 hr (6.2% in area %), as shown in FIG. 8.

[2] = system: TGFβ-induced Col1A2 gene transcription and collagen synthesis; test: TGFβ-induced fibrotic responses in vitro; assay type: cell-based
[3] = system: Theiler Murine Encephalomyelitis Virus-induced demyelmating disease model (TMEV); test: TMEV model; assay type: in vivo, mice
From the text: 2) Theiler Murine Encephalomyelitis Virus-induced demyelmating disease model (TMEV) that mimics progressive forms of MS.

[4] = Stress test of VCE-004.8 drug substance; assay type: physicochemical
Experimental: A stress test was performed concluding that VCE-004.8 drug substance is stable for 3 days at 65° C.+/−5° C. in glass vials. […] A short-term stability study at 40° C. was completed with indecisive results due to the early development stage of the impurity method.

[5] = Turbidimetric aqueous solubility (estimated precipitation range); assay type: physicochemical; settings: aqueous solubility test at 37° C.
[6] = Solvent shift method in SGF and SIF; assay type: physicochemical; settings: for API concentration in solution: SIF
Experimental: These experiments applied to a 5 mg/mL solution of VCE-004.8 in DMSO, of which 80 μL was added to 4 mL polymer solutions prepared in simulated intestinal fluid (SIF) and simulated gastric fluid (SGF). Subsequently the samples were incubated at 25° C. under continuous stirring, and after 0.5, 1, 2 and 4 hr, an aliquot was taken, filtered and analyzed by HPLC to determine the VCE-004.8 concentration in solution. Results are presented in FIG. 11 (SGF) and FIG. 12 (SIF).

[7] = in vitro; assay type: in vitro ADME; settings: plasma
[8] = physchem; assay type: physicochemical; settings: for solubility at 24 h / solubility at 24 hr: thermodynamic from solid
Experimental: A quantitative thermodynamic solubility determination on VGE-004.8 was performed. Suspensions of VCE-004.8 were prepared in different pharmaceutical vehicles and organic solvents. The organic solvents, lipid and co-solvent vehicles consisted of pure solvent or lipid, while the cyclodextrin solutions were prepared in phosphate buffer pH 7.0. […] The concentration of VCE-004.8 in solution was determined by HPLC analysis.

[9] = physchem; assay type: physicochemical; settings: oil or lipid
Experimental: The solubility of a compound is an important factor in determining its absorption from the gastrointestinal tract and ultimately its oral bioavailability. First it was determined the solubility of VCE-004.8 in a collection of different solvents (e.g., aqueous, lipidic, organic, etc.). Additionally, a test of stability of VCE-004.8 in selected solvents was also used as a criterion for selection of the best solvents.

## C=C(C)C1CCC(C)=C[C@H]1C1=C(O)C(=O)C(CCCCC)=C(NCc2ccccc2)C1=O (stereo partly drawn) [VCE-004.8, (1′R,6′R)-3-(Benzylamine)-6-hydroxy-3′-methyl-4-pentyl-6′-(prop-1-en-2-yl)[1,1′-bi(cyclohexane)]-2′,3,6-triene-2,5-dione]
[1]; after 6 hr at reflux in ethyl acetate
  impurity peak: 1.7%
[1]; after 24 hr at reflux in ethyl acetate
  impurity peak: 6.2%
[2]
  TGFβ-induced Col1A2 gene transcription and collagen synthesis: inhibited
  TGFβ-mediated myofibroblast differentiation: inhibited
  wound-healing activity: impaired
[3]; TMEV mice
  axonal disorganization: prevented
[3]; TMEV model, actimeter test
  clinical severity and neuropathology: attenuated
[3]; TMEV-infected mice
  microglial reactivity and infiltration of inflammatory cells: significantly reduced
[3]; mice infected with Theiler's virus
  motor deficits: ameliorated
[3]; spinal cord of TMEV mice
  demyelination: significantly reduced
  number of infiltrated CD4+ T cells and immune cells: reduced
[4]; 65° C.+/−5° C. in glass vials
  stress test: stable for: 3 days
[4]; stress test
  temperatures at which degradation of the product was observed: above 65 °C
[5]
  Estimated Precipitation Range, Calculated Mid-range: <6.5 µM
  Estimated Precipitation Range, Lower Bound: <1 µM
  Estimated Precipitation Range, Upper Bound: 6.5 µM
[6]; SGF, TGPS solution, after 4 hr, 25° C.
  VCE-004.8 concentration in solution: about 0.03 mg-mL
[6]; Eudragit L100, supersaturation for at least 1 hr
  API concentration in solution: approximately 60 μg/mL
[6]; PVP K30, supersaturation for at least 1 hr
  API concentration in solution: approximately 60 μg/mL
[6]; all the HPMC derivates (except for HPMC as is), from 0.5 to 1 hr
  API concentration in solution: approximately 60 μg/mL
[7]
  fraction unbound: < 0.01
[8]
  Solubility class: practically insoluble
[8]; 25 °C, oil or lipid, Solubility
  solubility at 24 h: 35700 µg/mL (≈ 82.3 mM)
[8]; 25 °C, oil or lipid, Solubility class (Ph. Eur.)
  solubility at 24 h: 33000 to 100000 µg/mL (≈ 76.1 to 231 mM)
[8]; 25 °C, pH 1, simulated gastric fluid, Solubility
  solubility at 24 h: < 8 µg/mL
[8]; 25 °C, pH 1, simulated gastric fluid, Solubility class (Ph. Eur.)
  solubility at 24 h: < 100 µg/mL
[8]; 25 °C, pH 2, aqueous buffer, Solubility
  solubility at 24 h: < 8 µg/mL
[8]; 25 °C, pH 5, aqueous buffer, Solubility
  solubility at 24 h: < 8 µg/mL
[8]; 25 °C, pH 5, aqueous buffer, Solubility class (Ph. Eur.)
  solubility at 24 h: < 100 µg/mL
[8]; 25 °C, pH 7, aqueous buffer, Solubility
  solubility at 24 hr: < 8 µg/mL
[8]; 25 °C, pH 7, aqueous buffer, Solubility class (Ph. Eur.)
  solubility at 24 hr: < 100 µg/mL
[8]; 25 °C, pH 7, aqueous with cosolvent or surfactant or cyclodextrin, Solubility class (Ph. Eur.)
  solubility at 24 h: < 100 µg/mL
[8]; 25 °C, pH 9, aqueous buffer, Solubility
  solubility at 24 hr: < 8 µg/mL
[8]; 25 °C, pH 9, aqueous buffer, Solubility class (Ph. Eur.)
  solubility at 24 hr: < 100 µg/mL
[8]; 37 °C, oil or lipid, Solubility
  solubility at 24 h: 23700 µg/mL (≈ 54.7 mM)
[8]; pH 2
  Solubility class (Ph. Eur.): Practicalty insoluble
[8]; pH 7
  Solubility class: practically insoluble
[9]; 25 °C
  solubility: 17700 µg/mL (≈ 40.8 mM)
[9]; 37 °C
  solubility: 34500 µg/mL (≈ 79.6 mM)
